Key:
P2X2 F303I = target: T1, P2X2 F303I (Homo sapiens, UniProt Q9UBL9, F303I); assay: Site-saturation screen of ligand-binding domain with ATP, F303I; type: cell-based; conditions: 500 μM ATP, ± sd
T1 construct: expressed in transfected cells; host or cells: S. cerevisiae BY4741 background
From the text: (§1) The yeast P2X2 screening platform poses an opportunity to probe the structure-function of the ligand-binding domain in detail. The conserved P2X “NFR” motif at residues 300 to 302 is directly involved in bonding to the ATP triphosphate moiety ([41]), so we mutagenized residues at or near this motif (298–304), ultimately covering 133 variants (7 sites, 19 residues each). […] We compared our results to phylogenetic data based on a multiple sequence alignment (MSA) from a curated set of 419 related P2X homologs (Figs. 3B, and S5; Table S1).
(§2) Figure 3 Structure-function analysis of the ligand binding domain.A, heat map summarizing the screening data of ATP with seven site-saturation libraries surrounding the NFR-motif. B, sequence-logo plot of the mutagenized residues and percent identity scores as determined from MSA. C, homology model of P2X2 colored by sequence conservation as calculated from a multiple sequence alignment of 419 related P2X genes. Conservation is scored on a log scale where maroon is more conserved and blue is less conserved. D, ATP in the ligand-binding pocket of P2X2. […]
(§3) GCaMP assays were performed as follows. […] Cells were loaded onto a black, clear bottom microplate and imaged on a FlexStation3 plate reader. […] Fluorescence was measured with an excitation at 485 nm, and emission 525 nm. […] For strains with mScarlet, fluorescence was read with excitation 570 nm/emission 610 nm. […]

P2X2 A304Y = target: T2, P2X2 A304Y (Homo sapiens, UniProt Q9UBL9, A304Y); assay: Site-saturation screen of ligand-binding domain with ATP, A304Y; type: cell-based; conditions: 500 μM ATP, ± sd
T2 construct: expressed in transfected cells; host or cells: Saccharomyces cerevisiae BY4741 derivative, genome-integrated, galactose-inducible
From the text: as §1, §2, §3

P2X2 Y299F = target: T3, P2X2 Y299F (Homo sapiens, UniProt Q9UBL9, Y299F); assay: Site-saturation screen of ligand-binding domain with ATP, Y299F; type: cell-based; conditions: 500 μM ATP, ± sd
T3 construct: expressed in transfected cells; host or cells: S. cerevisiae BY4741 background
From the text: as §1, §2, §3

[1] = target: T4, P2X2 G353 serine substitution (G353S) (Homo sapiens, UniProt Q9UBL9, G353S); assay: Site-saturation screen, fast kinetic assay in yeast, G353 serine; type: cell-based; conditions: 500 μM ATP, ΔF/ΔT normalized to WT
T4 construct: expressed in transfected cells; host or cells: S. cerevisiae BY4741 background
Description: (§4) Figure 2 P2X2 SNP testing.A, homology model of P2X2 with the clinically implicated SNPs highlighted. V60 is highlighted in magenta and G353 is highlighted in dark blue. Lines indicate the positions of the mutations on each of the three monomers. B, zoomed view of the transmembrane region from the purple box in (A). V60 is magenta and G353 is dark blue. The structure is rotated 60° on the right image. C, screening data from site-saturation of the V60 residue in saturating ATP concentration (500 μM f.c.) using the fast kinetic assay. Signal onset values (ΔF/ΔT) are normalized to values from the WT receptor. […] Each of 2 to 3 replicates is represented as a single point. […]
(§5) GCaMP assays were performed as follows. […] Cells were loaded onto a black, clear bottom microplate and imaged on a FlexStation3 plate reader. […] Fluorescence was measured with an excitation at 485 nm, and emission 525 nm. […] For strains with mScarlet, fluorescence was read with excitation 570 nm/emission 610 nm. Slopes were calculated from the last 6 points of measurement and were normalized to the positive control samples. Any replicate in which the mScarlet value was measured to be over 2 standard deviations less than the mean for that set was discarded from further analysis.

P2X2 A304V = target: T5, P2X2 A304V (Homo sapiens, UniProt Q9UBL9, A304V); assay: Site-saturation screen of ligand-binding domain with ATP, A304V; type: cell-based; conditions: 500 μM ATP, ± sd
T5 construct: expressed in transfected cells; host or cells: Saccharomyces cerevisiae BY4741 derivative, genome-integrated, galactose-inducible
From the text: as §1, §2, §3

P2X2 Y299H = target: T6, P2X2 Y299H (Homo sapiens, UniProt Q9UBL9, Y299H); assay: Site-saturation screen of ligand-binding domain with ATP, Y299H; type: cell-based; conditions: 500 μM ATP, ± sd
T6 construct: expressed in transfected cells; host or cells: S. cerevisiae BY4741 background
From the text: as §1, §2, §3

[2] = tested on: P2X2 all variants at V60, including the V60L mutation; assay: Site-saturation screen, fast kinetic assay in yeast, V60 variants; type: cell-based, human; conditions: 500 μM ATP f.c., ΔF/ΔT normalized to WT
Description: as §4, §5

P2X2 R302 lysine (R302K) = target: T7, P2X2 R302 lysine (R302K) (Homo sapiens, UniProt Q9UBL9, R302K); assay: Site-saturation screen of ligand-binding domain with ATP, R302 lysine; type: cell-based; conditions: 500 μM ATP, ± sd
T7 construct: expressed in transfected cells; host or cells: S. cerevisiae BY4741 background
From the text: as §1, §2, §3

P2X2 N300T = target: T8, P2X2 N300T (Homo sapiens, UniProt Q9UBL9, N300T); assay: Site-saturation screen of ligand-binding domain with ATP, N300T; type: cell-based; conditions: 500 μM ATP, ± sd
T8 construct: expressed in transfected cells; host or cells: S. cerevisiae BY4741 background
From the text: as §1, §2, §3

[3] = target: T9, P2X2 G353 histidine substitution (G353H) (Homo sapiens, UniProt Q9UBL9, G353H); assay: Site-saturation screen, fast kinetic assay in yeast, G353 histidine; type: cell-based; conditions: 500 μM ATP, ΔF/ΔT normalized to WT
T9 construct: expressed in transfected cells; host or cells: S. cerevisiae BY4741 background
Description: as §4, §5

T2 sequence (Q9UBL9 whole entry A304Y, the tested form may be a part): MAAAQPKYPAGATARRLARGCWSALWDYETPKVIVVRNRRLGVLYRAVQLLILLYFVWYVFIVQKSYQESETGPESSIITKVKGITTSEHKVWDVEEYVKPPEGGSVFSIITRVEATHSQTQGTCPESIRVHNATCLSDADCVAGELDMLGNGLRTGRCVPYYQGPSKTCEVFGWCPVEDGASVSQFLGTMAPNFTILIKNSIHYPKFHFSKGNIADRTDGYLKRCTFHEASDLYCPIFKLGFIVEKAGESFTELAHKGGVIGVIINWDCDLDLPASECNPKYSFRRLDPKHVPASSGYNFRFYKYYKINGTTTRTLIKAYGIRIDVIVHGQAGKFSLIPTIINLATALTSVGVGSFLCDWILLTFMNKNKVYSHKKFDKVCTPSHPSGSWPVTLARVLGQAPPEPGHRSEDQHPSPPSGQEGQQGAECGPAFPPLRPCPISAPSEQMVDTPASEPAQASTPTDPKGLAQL
T5 sequence (Q9UBL9 whole entry A304V, the tested form may be a part): as the sequence (Q9UBL9 whole entry A304Y, the tested form may be a part) above, with Y304V counted along it
T3 sequence (Q9UBL9 whole entry Y299F, the tested form may be a part): as the sequence (Q9UBL9 whole entry A304Y, the tested form may be a part) above, with Y299F, Y304A counted along it
T7 sequence (Q9UBL9 whole entry R302K, the tested form may be a part): as the sequence (Q9UBL9 whole entry A304Y, the tested form may be a part) above, with R302K, Y304A counted along it
T4 sequence (Q9UBL9 whole entry G353S): as the sequence (Q9UBL9 whole entry A304Y, the tested form may be a part) above, with Y304A, G353S counted along it
T1 sequence (Q9UBL9 whole entry F303I, the tested form may be a part): as the sequence (Q9UBL9 whole entry A304Y, the tested form may be a part) above, with F303I, Y304A counted along it
T9 sequence (Q9UBL9 whole entry G353H): as the sequence (Q9UBL9 whole entry A304Y, the tested form may be a part) above, with Y304A, G353H counted along it
T8 sequence (Q9UBL9 whole entry N300T, the tested form may be a part): as the sequence (Q9UBL9 whole entry A304Y, the tested form may be a part) above, with N300T, Y304A counted along it
T6 sequence (Q9UBL9 whole entry Y299H, the tested form may be a part): as the sequence (Q9UBL9 whole entry A304Y, the tested form may be a part) above, with Y299H, Y304A counted along it

Nc1ncnc2c1ncn2[C@@H]1O[C@H](COP(=O)(O)OP(=O)(O)OP(=O)(O)O)[C@@H](O)[C@H]1O [ATP] was tested, and the “signal, % of WT signaling” value (P2X2 F303I) was 90 ± 42%, the “signal, % of WT signaling” value (P2X2 A304Y) was 52 ± 10% and the “signal relative to WT” value (P2X2 Y299F) was 21 ± 12%. For the same compound, the “signaling, % of WT activity” value [1] was 95%, the “signal, % of WT signaling” value (P2X2 A304V) was 32 ± 2.1% and the “signal relative to WT” value (P2X2 Y299H) was 11 ± 5%. The “response to ATP” value [2] was “unresponsive”, the “signal, % of WT signaling” value (P2X2 R302 lysine (R302K)) was 43 ± 15% and the “signal, % of WT signaling” value (P2X2 N300T) was 51 ± 10%. For the same compound, the “signaling, % of WT activity” value [3] was 32%.

Source: PMC11063903, “Engineering a human P2X2 receptor with altered ligand selectivity in yeast” (The Journal of Biological Chemistry, 2024)
